Values quoted from earlier work, collected in patent publication US7863277B1, “Topical antipsychotic composition” (Medcara, L.L.C., priority 2005, dated 2011).

Conditions: decreasing absorption when not taken concurrently with food

- Oral bioavailability: about 60%
Structure (SMILES): O=C1Cc2cc(CCN3CCN(c4nsc5ccccc45)CC3)c(Cl)cc2N1 [ziprasidone, 5-(2-(4-(1,2-benzisothiazol-3-yl)piperazinyl)ethyl)-6-chloro-1,3-dihydro-2(1H)-indole-2-one]
